Active and inactive are the calls of the source. The rule behind the calls is not given here.
Experiments:
[1] = Antioxidant activity of the compound assessed as inhibition of fenton reaction-induced DNA strand cleavage of plasmid pcDNA Hismyc B4 after 1 hr by ethidium bromide staining-based agarose gel electrophoresis; type: functional
[2] = target: Beta-secretase 1 (Homo sapiens) (UniProt P56817); experiment: Binding affinity to BACE1 (unknown origin) in acetate buffer at pH 4.8 at 0.25 to 5 uM by steady state spectrofluorimeter
[3] = target: Beta-secretase 1 (Homo sapiens) (UniProt P56817); experiment: Binding affinity to BACE1 (unknown origin) in acetate buffer at pH 4.8 at 250 nM by steady state spectrofluorimeter
[4] = target: Beta-secretase 1 (Homo sapiens) (UniProt P56817); experiment: Binding affinity to BACE1 (unknown origin) in PBS at pH 7.4 up to 10 uM by steady state spectrofluorimeter
[5] = target: Beta-secretase 1 (Homo sapiens) (UniProt P56817); experiment: Binding affinity to BACE1 (unknown origin) in acetate buffer at pH 4.8 assessed as increase in lifetime species of excited tryptophan in active site at 5 uM by time-resolved fluorescence spectroscopy relative to control
[6] = target: Beta-secretase 1 (Homo sapiens) (UniProt P56817); experiment: Binding affinity to BACE1 (unknown origin) by fluorescence titration method
[7] = target: Beta-secretase 1 (Homo sapiens) (UniProt P56817); experiment: Inhibition of BACE1 (unknown origin) at 500 nM incubated for 2 hrs by FRET assay relative to control
[8] = target: Amyloid-beta precursor protein (Homo sapiens) (UniProt P05067); experiment: Inhibition of amyloid beta (25 to 35 residues) (unknown origin) aggregation at 20 uM incubated for 3 days by intrinsic flavonoid fluorescence assay
[9] = target: Amyloid-beta precursor protein (Homo sapiens) (UniProt P05067); experiment: Inhibition of amyloid beta (25 to 35 residues) (unknown origin) aggregation at 20 uM incubated for 3 days by 8-anilino-1-naphthalene-based fluorescence spectrophotometric method
[10] = target: Amyloid-beta precursor protein (Homo sapiens) (UniProt P05067); experiment: Inhibition of amyloid beta (25 to 35 residues) (unknown origin) aggregation at 20 uM incubated for 3 days by thioflavin T-based fluorescence spectrophotometric method
[11] = target: Amyloid-beta precursor protein (Homo sapiens) (UniProt P05067); experiment: Inhibition of amyloid beta (25 to 35 residues) (unknown origin) aggregation at 10 uM incubated for 3 days by thioflavin T-based fluorescence spectrophotometric method relative to control
[12] = target: Amyloid-beta precursor protein (Homo sapiens) (UniProt P05067); experiment: Inhibition of amyloid beta (25 to 35 residues) (unknown origin) aggregation at 100 uM incubated for 7 days by atomic force microscopic method
[13] = Antioxidant activity of the compound assessed as ABTS free radical scavenging activity; type: functional
[14] = Antioxidant activity of the compound assessed as inhibition of fenton reaction-induced DNA strand cleavage of plasmid pcDNA Hismyc B4 at 250 uM after 1 hr by ethidium bromide staining-based agarose gel electrophoresis; type: functional

Amyloid-beta precursor protein (Homo sapiens), sequence (P05067 whole entry, the tested form may be a part): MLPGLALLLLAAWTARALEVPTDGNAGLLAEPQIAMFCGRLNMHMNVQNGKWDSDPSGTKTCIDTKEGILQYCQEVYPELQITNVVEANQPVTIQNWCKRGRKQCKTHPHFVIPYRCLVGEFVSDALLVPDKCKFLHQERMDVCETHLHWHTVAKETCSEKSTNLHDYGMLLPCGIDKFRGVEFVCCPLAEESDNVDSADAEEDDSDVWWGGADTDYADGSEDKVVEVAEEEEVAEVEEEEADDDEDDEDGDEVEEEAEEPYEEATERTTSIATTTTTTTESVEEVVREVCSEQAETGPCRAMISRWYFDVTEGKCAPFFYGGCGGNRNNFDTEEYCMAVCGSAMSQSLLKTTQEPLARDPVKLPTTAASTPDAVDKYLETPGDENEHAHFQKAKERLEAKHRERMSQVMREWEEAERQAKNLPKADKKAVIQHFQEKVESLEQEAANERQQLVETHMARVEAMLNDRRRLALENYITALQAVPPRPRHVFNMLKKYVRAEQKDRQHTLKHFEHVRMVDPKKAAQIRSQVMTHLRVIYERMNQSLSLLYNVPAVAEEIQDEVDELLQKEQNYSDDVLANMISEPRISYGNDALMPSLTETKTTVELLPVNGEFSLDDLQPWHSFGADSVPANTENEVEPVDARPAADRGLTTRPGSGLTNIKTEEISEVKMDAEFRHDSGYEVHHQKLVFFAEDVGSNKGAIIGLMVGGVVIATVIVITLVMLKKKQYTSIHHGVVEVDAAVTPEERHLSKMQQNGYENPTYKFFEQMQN
Beta-secretase 1 (Homo sapiens), sequence (P56817 whole entry, the tested form may be a part): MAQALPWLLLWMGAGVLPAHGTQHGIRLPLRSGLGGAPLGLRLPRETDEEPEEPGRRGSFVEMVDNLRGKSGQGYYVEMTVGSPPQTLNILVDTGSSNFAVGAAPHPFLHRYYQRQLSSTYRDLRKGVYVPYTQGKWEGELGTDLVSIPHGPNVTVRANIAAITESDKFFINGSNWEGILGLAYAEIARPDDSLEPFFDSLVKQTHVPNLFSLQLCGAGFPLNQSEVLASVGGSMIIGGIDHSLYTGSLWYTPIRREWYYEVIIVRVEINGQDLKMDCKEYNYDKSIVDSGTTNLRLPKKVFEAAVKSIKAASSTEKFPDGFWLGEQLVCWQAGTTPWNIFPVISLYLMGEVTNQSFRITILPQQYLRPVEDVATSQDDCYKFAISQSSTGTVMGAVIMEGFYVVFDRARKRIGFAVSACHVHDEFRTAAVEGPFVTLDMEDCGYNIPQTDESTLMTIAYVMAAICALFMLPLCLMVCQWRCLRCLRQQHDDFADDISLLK

In the case of `Cc1c(C)c2c(c(C)c1O)CCC(C)(C(=O)O)O2` (stereo not given), the inhibition [1] is reported as “Active”.
In the case of `COc1ccc([C@@H]2CC(=O)c3c(O)cc(O[C@@H]4O[C@H](CO[C@@H]5O[C@@H](C)[C@H](O)[C@@H](O)[C@H]5O)[C@@H](O)[C@H](O)[C@H]4O)cc3O2)cc1O` [HESPERIDIN], the Activity [2] is reported as “Active”, the Activity [3] is reported as “Active” and the Activity [4] is reported as “Active”. It also gave a fold change (FC) [5] of 2.5, a K [6] of 302000 and an inhibition [7] of 100%. The inhibition [8] was “Active”, the inhibition [9] was “Active” and the inhibition [10] was “Active”. The inhibition [11] was 40%, the inhibition [12] was “Active” and the Activity [13] was “Dose-dependent effect”. For the same compound, the IC50 [13] was 16.5 µM and the inhibition [14] was “Active”.

— ChEMBL document CHEMBL3853273, “Multi-target screening mines hesperidin as a multi-potent inhibitor: Implication in Alzheimer's disease therapeutics” (Eur J Med Chem, 2016)
